Our source for the IC50 values is patent US7482351B2, “4-pyrimidineamine compounds and their uses as anti-proliferative agents” (Rigel Pharmaceuticals, Inc., priority 2004, dated 2009).

Format in all cases: cell-based
Experiment [1] concerns A549 (lung carcinoma) cells. Briefly: in vitro inhibition of A549 cells. The procedure:
(§1) Various exemplary 5-fluoro-4-pyrmidineamine compounds (illustrated in TABLE 1, infra) were synthesized as described herein and tested for their ability to inhibit A549 (lung carcinoma), DLD-1 (colorectal adenocarcinoma), H1299 (non small cell lung carcinoma), HCT116 (colorectal carcinoma), HELA (cervical adenocarcinoma) and/or U2OS (bone osterosarcoma) cells in vitro. […] A blank indicates the particular compound was […].

The test system of experiment [2] is H1299 (non small cell lung carcinoma) cells. Briefly: in vitro inhibition of H1299 cells. The procedure:
as §1

Experiment [3] has as its system HCT116 (colorectal carcinoma) cells. Put plainly: in vitro inhibition of HCT116 cells. The procedure:
as §1

For experiment [4], the system named is HELA (cervical adenocarcinoma) cells. Put plainly: in vitro inhibition of HELA cells. The procedure: as §1
The test system of experiment [5] is U2OS (bone osterosarcoma) cells. Briefly: in vitro inhibition of U2OS cells. How it is done: as §1
Experiment [6] concerns ACHN (renal cell adenocarcimona). Put plainly: additional cell line ACHN. How it is done: (§2) Compound 1 was tested against the following additional cell lines: ACHN (renal cell adenocarcimona), JAR (placental choriocarcinoma), MCF7 (estrogen-dependent breast adenocarcinoma), MDA-MB-231 (estrogen independent breast adenocarcinoma), SKMEL28 (human melanoma) and SKMEL5 (human melanoma). In all cases, the IC50 was less than 1 μM.

For experiment [7], the system named is JAR (placental choriocarcinoma). Briefly: additional cell line JAR. The procedure: as §2
In experiment [8] the test system is MCF7 (estrogen-dependent breast adenocarcinoma). Put plainly: additional cell line MCF7. How it is done: as §2
For experiment [9], the system named is MDA-MB-231 (estrogen independent breast adenocarcinoma). Briefly: additional cell line MDA-MB-231. Particulars: MDA-MB-231 cell line. The procedure: as §2
Another experiment has as its system SKMEL28 (human melanoma). Put plainly: additional cell line SKMEL28. The procedure:
as §2

The subject of a further experiment is SKMEL5 (human melanoma). Briefly: additional cell line SKMEL5. The procedure: as §2
The test system of experiment [10] is DLD-1 (colorectal adenocarcinoma) cells. Briefly: in vitro inhibition of DLD-1 cells. Particulars: DLD-1 (colorectal adenocarcinoma) cells in vitro. The procedure: as §1

A value given as a limit tells only on which side of the number the result lay.

As for `CN(c1ccc2c(c1)OCCO2)c1nc(Cl)ncc1F` [Compound 1, 2-chloro-N-4-(3,4-ethylenedioxyphenyl)-5-fluoro-N-4-methyl-4-pyrimidineamine], the IC50 was ≤ 1 µM in experiment [1]; ≤ 1 µM in experiment [2]; ≤ 1 µM in experiment [3]; ≤ 1 µM in [4]; ≤ 1 µM in experiment [5]; < 1 µM in [6]. The IC50 (in experiment [7]; in experiment [8]; in experiment [9]; in the experiment on SKMEL28 (human melanoma); with SKMEL5 (human melanoma)) was < 1 µM throughout.
For `CN(c1ccc2c(c1)OCCO2)c1nc(-c2ccoc2)ncc1F` [Compound 26, N4-(3,4-Ethylenedioxyphenyl)-5-fluoro-2-(3-furyl)-N-4-methyl-4-pyrimidineamine], the IC50 in experiment [1], in [2], in experiment [10], in experiment [3], in experiment [4] and in [5] was ≤ 1 µM in each case.
Consider `CN(c1ccc2c(c1)OCCO2)c1nc(-c2cc3ccccc3s2)ncc1F` [Compound 35, 2-(Benzothiophen-2-yl)-N-4-(3,4-ethylenedioxyphenyl)-5-fluoro-N-4-methyl-4-pyrimidineamine], for which the concentration for half-maximal inhibition (IC50) in [1] and in [2] was > 20 µM each time.
On to “N4-(3,4-Ethylenedioxyphenyl)-5-fluoro-2-(3-hydroxyphenyl)-N-4-methyl-4-pyrimidineamine [Compound 19]”, for which the results for the IC50 in experiment [1] and in [2] were ≤ 10 µM and 1 to 10 µM, respectively.
On the same counts, the results for `COc1ncc(F)c(N(C)c2ccc3c(c2)OCCO3)n1` [Compound 15] are ≤ 10 µM and 1 to 10 µM.
Taken in the same sequence, the figures for `Cc1cc(N(C)c2nc(Cl)ncc2F)cc(C)c1Cl` [Compound 11] were > 20 µM and > 20 µM.
On the same counts, the results for `Cc1noc(C)c1-c1ncc(F)c(N(C)c2ccc3c(c2)OCCO3)n1` [Compound 29, 2-(3,5-Dimethylisoxazol-4-yl)-N-4-(3,4-ethylenedioxyphenyl)-5-fluoro-N-4-methyl-4-pyrimidineamine] are ≤ 10 µM and 1 to 10 µM.
Regarding `CN(c1ccc2c(c1)OCCO2)c1nc(-c2ccc[nH]2)ncc1F` [Compound 31, N4-(3,4-Ethylenedioxyphenyl)-5-fluoro-N-4-methyl-2-(1H-pyrrol-2-yl)-4-pyrimidineamine], the IC50 in experiment [1], in [2], in experiment [10], in experiment [3], in [4] and in experiment [5] was ≤ 1 µM each time.
For the molecule `CN(c1ccc2c(c1)OCCO2)c1nc(-c2ccsc2C=O)ncc1F` [Compound 39, N4-(3,4-ethylenedioxyphenyl)-5-fluoro-2-(2-formylthien-3-yl)-N-4-methyl-4-pyrimidineamine], the IC50 in [1] and in experiment [2] was ≤ 1 µM throughout.
For `COc1ccc(N(C)c2nc(Cl)ncc2F)cc1OC` [Compound 2], the IC50 in experiment [1] and in experiment [2] was ≤ 1 µM throughout.
With `CN(c1ccc2c(c1)OCCO2)c1nc(-c2ccco2)ncc1F` [Compound 22, N4-(3,4-Ethylenedioxyphenyl)-5-fluoro-2-(2-furyl)-N-4-methyl-4-pyrimidineamine], the half-maximal inhibitory concentration (IC50) in experiment [1] is ≤ 1 µM; in experiment [2], ≤ 1 µM; in experiment [10], ≤ 10 µM; in experiment [3], ≤ 10 µM; in experiment [4], ≤ 10 µM; in [5], ≤ 10 µM.
In the case of `COc1c(Cl)cc(N(C)c2nc(Cl)ncc2F)cc1Cl` [Compound 5], the IC50 was 1 to 10 µM in experiment [1] and ≤ 10 µM in experiment [2].
On the same counts, the results for `COc1cc(N(C)c2nc(Cl)ncc2F)cc(OC)c1OC` [Compound 10] are > 20 µM and > 20 µM.
Turning to `CN(c1ccc2c(c1)OCCO2)c1nc(-c2ccc(Cl)s2)ncc1F` [Compound 37, 2-(5-Chloro-2-thienyl)-N-4-(3,4-ethylenedioxyphenyl)-5-fluoro-N-4-methyl-4-pyrimidineamine], the figures for the IC50 in [1] and in experiment [2] were > 20 µM and 10 to 20 µM, respectively.
On the same counts, the results for `CN(c1ccc2c(c1)OCCO2)c1nc(-c2csc3ccccc23)ncc1F` [Compound 36, 2-(Benzothiophen-3-yl)-N-4-(3,4-ethylenedioxyphenyl)-5-fluoro-N-4-methyl-4-pyrimidineamine] are > 20 µM and > 20 µM.
With `CN(c1ccc2c(c1)OCCO2)c1nc(-c2cccnc2)ncc1F` [Compound 27, N4-(3,4-Ethylenedioxyphenyl)-5-fluoro-N-4-methyl-2-(pyridin-3-yl)-4-pyrimidineamine], the IC50 in experiment [1] was ≤ 10 µM; in [2], 1 to 10 µM.
Taken in the same sequence, the figures for `Cc1cscc1-c1ncc(F)c(N(C)c2ccc3c(c2)OCCO3)n1` [Compound 34, N4-(3,4-Ethylenedioxyphenyl)-5-fluoro-N-4-methyl-2-(4-methyl-3-thienyl)-4-pyrimidineamine] were ≤ 1 µM and ≤ 1 µM.
As to `COc1ccc(-c2ncc(F)c(N(C)c3ccc4c(c3)OCCO4)n2)cc1OC` [Compound 20, N4-(3,4-Ethylenedioxyphenyl)-2-(3,4-dimethoxyphenyl)-5-fluoro-N-4-methyl-4-pyrimidineamine], the IC50 in experiment [1], in experiment [2], in [10], in experiment [3], in experiment [4] and in experiment [5] was > 20 µM each time.
Regarding `CN(c1ccc2c(c1)OCCO2)c1nc(-c2ccncc2)ncc1F` [Compound 28, N4-(3,4-Ethylenedioxyphenyl)-5-fluoro-N-4-methyl-2-(pyridin-4-yl)-4-pyrimidineamine], the IC50 in [1] and in experiment [2] was ≤ 1 µM throughout.
`Cc1ccc(-c2ncc(F)c(N(C)c3ccc4c(c3)OCCO4)n2)s1` [Compound 33, N4-(3,4-Ethylenedioxyphenyl)-5-fluoro-N-4-methyl-2-(5-methyl-2-thienyl)-4-pyrimidineamine]: the figures for the IC50 in [1] and in experiment [2] were ≤ 10 µM and 1 to 10 µM, respectively.
Turning to `CN(c1ccc2c(c1)OCCO2)c1nc(-c2cccc(N)c2)ncc1F` [Compound 23, 2-(3-Aminophenyl)-N-4-(3,4-ethylenedioxyphenyl)-5-fluoro-N-4-methyl-4-pyrimidineamine], the IC50 was ≤ 1 µM in [1]; ≤ 1 µM in experiment [2]; ≤ 10 µM in experiment [10]; ≤ 10 µM in experiment [3]; ≤ 10 µM in [4]; ≤ 10 µM in experiment [5].
As for `COc1ccc(N(C)c2nc(Cl)ncc2F)cc1Cl` [Compound 7], the IC50 in experiment [1] and in experiment [2] was ≤ 1 µM in each case.
For `CN(c1ccc2c(c1)OCCO2)c1nc(-c2ccccc2)ncc1F` [Compound 18, N4-(3,4-Ethylenedioxyphenyl)-5-fluoro-N-4-methyl-2-(phenyl)-4-pyrimidineamine], the IC50 in experiment [1] and in experiment [2] was ≤ 1 µM each time.
With `CN(c1ccc2c(c1)OCCO2)c1nc(-c2ccc3c(c2)OCO3)ncc1F` [Compound 21, N4-(3,4-Ethylenedioxyphenyl)-5-fluoro-N-4-methyl-2-(3,4-methylenedioxyphenyl)-4-pyrimidineamine], the IC50 in experiment [1] is ≤ 10 µM; in experiment [2] it was 1 to 10 µM; in experiment [10], ≤ 20 µM; in experiment [3], ≤ 20 µM; in [4], ≤ 20 µM; in [5], ≤ 20 µM.
For the molecule `CN(c1ccc2c(c1)OCCO2)c1nc(-c2cc[s+]([O-])c2)ncc1F` (stereo not drawn) [Compound 41, N4-(3,4-ethylenedioxyphenyl)-5-fluoro-N-4-methyl-2-(1-oxide-3-thienyl)-4-pyrimidineamine], the IC50 in experiment [1] is ≤ 10 µM; in [2] it was 1 to 10 µM.
As to `COc1cc(OC)cc(N(C)c2nc(Cl)ncc2F)c1` [Compound 12], the IC50 in experiment [1] and in experiment [2] was > 20 µM in each case.
Turning to `CNCc1sccc1-c1ncc(F)c(N(C)c2ccc3c(c2)OCCO3)n1` [Compound 40, N4-(3,4-ethylenedioxyphenyl)-5-fluoro-N-4-methyl-2-(2-methylaminomethylenethien-3-yl)-4-pyrimidineamine], the IC50 in experiment [1] is ≤ 10 µM; in experiment [2], 1 to 10 µM.
Taken in the same sequence, the figures for `COc1cc(N(C)c2nc(Cl)ncc2F)ccc1Cl` [Compound 6] were > 20 µM and > 20 µM.
Taken in the same sequence, the figures for `CCCN(c1ccc(OC)c(Cl)c1)c1nc(Cl)ncc1F` [Compound 9] were 1 to 10 µM and ≤ 10 µM.
On the same counts, the results for `CN(c1ccc2c(c1)OCCO2)c1nc(-c2nccs2)ncc1F` [Compound 30, N4-(3,4-Ethylenedioxyphenyl)-5-fluoro-N-4-methyl-2-(thiazol-2-yl)-4-pyrimidineamine] are ≤ 10 µM and 1 to 10 µM.

As a reminder, the IC50 is the concentration needed to halve the response being measured. A lower IC50 goes with greater potency.
